Experimental data reported in patent US7144890B2, “Spiro-pentacyclic compounds” (Hoffman-La Roche Inc., priority 2004, dated 2006).

Key:
[1] = biological target: T1, human cannabis CB1 receptor (Homo sapiens, UniProt P21554); assay: Affinity for cannabinoid CB1 receptor, [3H]-CP-55,940 radioligand binding on HEK cell membranes; conditions: affinity for the CB1 receptor
T1 construct: expressed in transfected cells; host or cells: human embryonic kidney (HEK) cells, Semliki Forest Virus system, membrane preparation
Procedure: The affinity of the compounds of the invention for cannabinoid CB1 receptors was determined using membrane preparations of human embryonic kidney (HEK) cells in which the human cannabis CB1 receptor is transiently transfected using the Semliki Forest Virus system in conjunction with [3H]-CP-55,940 as radioligand. After incubation of a freshly prepared cell membrane preparation with the [3H]-ligand, with or without addition of compounds of the invention, separation of bound and free ligand was performed by filtration over glassfiber filters. Radioactivity on the filter was measured by liquid scintillation counting.

[2] = doses of 5, 10 and 20 mg daily; cited from earlier work

T1 sequence (P21554 whole entry): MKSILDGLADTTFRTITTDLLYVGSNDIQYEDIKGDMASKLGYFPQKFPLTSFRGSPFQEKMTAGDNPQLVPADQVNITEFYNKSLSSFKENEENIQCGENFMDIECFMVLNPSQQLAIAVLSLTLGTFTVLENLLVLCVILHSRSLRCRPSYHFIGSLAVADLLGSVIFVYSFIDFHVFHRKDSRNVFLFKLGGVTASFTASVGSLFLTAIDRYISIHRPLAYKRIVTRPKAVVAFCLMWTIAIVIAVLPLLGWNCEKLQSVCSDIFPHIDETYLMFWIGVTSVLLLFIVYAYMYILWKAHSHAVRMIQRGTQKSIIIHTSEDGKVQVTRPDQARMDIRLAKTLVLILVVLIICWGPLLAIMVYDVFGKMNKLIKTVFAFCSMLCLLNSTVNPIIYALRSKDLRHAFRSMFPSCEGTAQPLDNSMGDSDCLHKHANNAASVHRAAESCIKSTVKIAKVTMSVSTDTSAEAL

SMILES	IC50 [1] [nM]	body weight compared to placebo [2]
O=C(c1ccc2c(c1)OC1(O2)c2ccc(Cl)cc2CCc2cc(Cl)ccc21)C1CCNCC1 [Example 2, 4-[(2′,8′-dichloro-10′,11′-dihydrospiro[1,3-benzodioxole-2,5′-[5H]dibenzo[a,d]cyclohepten]-5-yl)carbonyl]-piperidine]	18	
O=C(c1cc2c(cc1F)OC1(O2)c2ccc(Cl)cc2CCc2cc(Cl)ccc21)N1CCOCC1 [Example 1, 4-[(2′,8′-dichloro-6-fluoro-10′,11′-dihydrospiro[1,3-benzodioxole-2,5′-[5H]dibenzo[a,d]cyclohepten]-5-yl)carbonyl]-morpholine]	13	
Cc1c(C(=O)NN2CCCCC2)nn(-c2ccc(Cl)cc2Cl)c1-c1ccc(Cl)cc1 [SR 141716]		significantly reduced body weight
